Data on 1 molecule can be found in ChEMBL document CHEMBL4813950, “Comparing the efficacy and selectivity of Ck2 inhibitors. A phosphoproteomics approach” (Eur J Med Chem, 2021).

Holding throughout (assay type): cell-based
Experiment [1] deals with Nucleolar RNA helicase 2 (Mus musculus) (UniProt Q9JIK5). Briefly: Inhibition of Ddx21 in mouse C2C12 cells assessed as reduction in phospho-sites occupancy at 4 uM after 5 hrs by SILAC based LC-MS/MS analysis relative to control.
Experiment [2] deals with Kinectin (Mus musculus) (UniProt Q61595). As to the kind of experiment: Inhibition of Ktn1 in mouse C2C12 cells assessed as reduction in phospho-sites occupancy at 4 uM after 5 hrs by SILAC based LC-MS/MS analysis relative to control.
Experiment [3] deals with Catenin alpha-1 (Mus musculus) (UniProt P26231). As to the kind of experiment: Inhibition of catenin alpha-1 in mouse C2C12 cells assessed as reduction in phospho-sites occupancy at 4 uM after 5 hrs by SILAC based LC-MS/MS analysis relative to control.
Experiment [4] deals with Protein IMPACT (Mus musculus) (UniProt O55091). Briefly: Inhibition of Impact in mouse C2C12 cells assessed as reduction in phospho-sites occupancy at 4 uM after 5 hrs by SILAC based LC-MS/MS analysis relative to control.
For experiment [5], the target named is Pleckstrin homology-like domain family B member 1 (Mus musculus) (UniProt Q6PDH0). As to the kind of experiment: Inhibition of Phldb1 in mouse C2C12 cells assessed as reduction in phospho-sites occupancy at 4 uM after 5 hrs by SILAC based LC-MS/MS analysis relative to control.
The target in experiment [6] is Transcriptional regulator ATRX (Mus musculus) (UniProt Q61687). As to the kind of experiment: Inhibition of ATRX in mouse C2C12 cells assessed as reduction in phospho-sites occupancy at 4 uM after 5 hrs by SILAC based LC-MS/MS analysis relative to control.
Experiment [7] deals with Lamina-associated polypeptide 2, isoforms beta/delta/epsilon/gamma (Mus musculus) (UniProt Q61029). As to the kind of experiment: Inhibition of LAP2B epsilon in mouse C2C12 cells assessed as reduction in phospho-sites occupancy at 4 uM after 5 hrs by SILAC based LC-MS/MS analysis relative to control.
Experiment [8] deals with Casein kinase 2 (Mus musculus) (UniProt Q60737+P67871+O54833+Q8CH19). As to the kind of experiment: Inhibition of CK2 in mouse C2C12 cells assessed as reduction in CDC37 phosphorylation at S13 residues at 1 to 4 uM by Western blot analysis. To be noted: dose 1-4 µM. For orientation: A western blot detects proteins with antibodies after separation by electrophoresis.
The target in experiment [9] is EH domain-containing protein 2 (Mus musculus) (UniProt Q8BH64). Briefly: Inhibition of Ehd2 in mouse C2C12 cells assessed as reduction in phospho-sites occupancy at 4 uM after 5 hrs by SILAC based LC-MS/MS analysis relative to control.
Experiment [10] deals with 182 kDa tankyrase-1-binding protein (Mus musculus) (UniProt P58871). Briefly: Inhibition of tankyrase-1-binding protein in mouse C2C12 cells assessed as reduction in phospho-sites occupancy at 4 uM after 5 hrs by SILAC based LC-MS/MS analysis relative to control.

Activity calls are given as the source filed them. The rule behind the calls is not given here.

Take `COc1cc(/C=N/n2c(SC)nnc2-c2ccccc2)c(Br)cc1O`: the fold change (FC) in experiment [1] worked out at 1.66; in experiment [2], 1.98; in experiment [3], 1.59; in experiment [4] it was 3.44; in experiment [5] it was 3.3; in [6], 2.83. For the same molecule, the values for the fold change (FC) in experiment [7], in [9] and in [10] were 3.86, 2.18 and 3.06, respectively. Further, the inhibition result in [8] was “Active”.
